Reference: BigSolDB 2.1

c1ccc2c(c1)Cc1ccccc1-2
solubility (mole fraction)
Settings | in acetone | in benzene | in chloroform | in isobutanol | in n-propanol | in toluene
283 K | 0.0445 | 0.0883 | 0.0893 | 0.00425 | 0.00817 | 0.063
288 K | 0.049 | 0.0982 | 0.102 | 0.00544 | 0.00903 | 0.0809
293 K | 0.0558 | 0.109 | 0.114 | 0.00691 | 0.0115 | 0.0967
298 K | 0.0687 | 0.126 | 0.132 | – | – | 0.124
298.4 K | – | – | – | 0.00902 | 0.0134 | –
303 K | – | – | – | – | – | 0.152
303.1 K | 0.0793 | – | 0.153 | – | – | –
303.2 K | – | 0.143 | – | 0.0121 | 0.0163 | –
308 K | – | 0.158 | – | 0.0156 | 0.0188 | 0.195
308.2 K | 0.0907 | – | 0.173 | – | – | –
313 K | 0.104 | 0.183 | 0.195 | 0.0192 | 0.0215 | 0.25
318 K | 0.12 | 0.209 | 0.22 | 0.023 | 0.0248 | 0.3
323 K | 0.14 | 0.235 | 0.25 | 0.0267 | 0.0289 | 0.37
